± gives the standard deviation of the averaged measurements.
Test: TIMS collisional cross section (CCS, N2) of the lipid ion; higher = larger ion cross section
Settings: ionization mode: positive, one isomer drawn

TIMS collisional cross section (sample type: HeLa) | TIMS collisional cross section (sample type: plasma) | TIMS collisional cross section (sample type: Liver) | SMILES
332.3 Å² | 332.6 Å² | – | CC/C=C\C/C=C\C/C=C\C/C=C\C/C=C\CCCCCC(=O)OC[C@@H](COC(=O)CCCCCCC/C=C\CCCCCCCC)OC(=O)CCCCCCC/C=C\CCCCCCCC [TG 18:1_18:1_22:5] (ion (formula + adduct): [C61H104O6+NH4] 1+)
331.3 Å² | – | – | CC/C=C\C/C=C\C/C=C\C/C=C\C/C=C\C/C=C\CCC(=O)OC[C@@H](COC(=O)CCCCCCC/C=C\CCCCCCCC)OC(=O)CCCCCCC/C=C\CCCCCCCC [TG 18:1_18:1_22:6] (ion (formula + adduct): [C61H102O6+NH4] 1+)
– | 322.17 ± 0.57 Å² | 322.5 ± 0.14 Å² | CCCCC/C=C\C/C=C\CCCCCCCC(=O)OC[C@@H](COC(=O)CCCCCCC/C=C\CCCCCCCC)OC(=O)CCCCCCC/C=C\C/C=C\CCCCC [TG 18:1_18:2_18:2] (ion (formula + adduct): [C57H100O6+NH4] 1+)
– | 319.9 Å² | – | CC/C=C\C/C=C\C/C=C\CCCCCCCC(=O)OC[C@@H](COC(=O)CCCCCCC/C=C\CCCCCCCC)OC(=O)CCCCCCC/C=C\C/C=C\CCCCC [TG 18:1_18:2_18:3] (ion (formula + adduct): [C57H98O6+NH4] 1+)
327.7 Å² | 327.3 Å² | 327 Å² | CCCCC/C=C\C/C=C\CCCCCCCC(=O)O[C@H](COC(=O)CCCCCCC/C=C\CCCCCCCC)COC(=O)CCCCCCC/C=C\CCCCCCCCC [TG 18:1_18:2_19:1] (ion (formula + adduct): [C58H104O6+NH4] 1+)
331.8 Å² | 330.8 Å² | – | CCCCC/C=C\C/C=C\CCCCCCCC(=O)O[C@H](COC(=O)CCCCCCC/C=C\CCCCCCCC)COC(=O)CCCCCCCCC/C=C\CCCCCCCC [TG 18:1_18:2_20:1] (ion (formula + adduct): [C59H106O6+NH4] 1+)
– | – | 325.7 Å² | CCCCC/C=C\C/C=C\C/C=C\C/C=C\CCCC(=O)OC[C@@H](COC(=O)CCCCCCC/C=C\CCCCCCCC)OC(=O)CCCCCCC/C=C\C/C=C\CCCCC [TG 18:1_18:2_20:4] (ion (formula + adduct): [C59H100O6+NH4] 1+)
– | 335.8 Å² | – | CCCCC/C=C\C/C=C\CCCCCCCCCCCC(=O)OC[C@@H](COC(=O)CCCCCCC/C=C\CCCCCCCC)OC(=O)CCCCCCC/C=C\C/C=C\CCCCC [TG 18:1_18:2_22:2] (ion (formula + adduct): [C61H108O6+NH4] 1+)
– | 332.1 Å² | 332.5 Å² | CCCCC/C=C\C/C=C\C/C=C\C/C=C\CCCCCC(=O)OC[C@@H](COC(=O)CCCCCCC/C=C\CCCCCCCC)OC(=O)CCCCCCC/C=C\C/C=C\CCCCC [TG 18:1_18:2_22:4] (ion (formula + adduct): [C61H104O6+NH4] 1+)
– | 329 Å² | – | CC/C=C\C/C=C\C/C=C\C/C=C\C/C=C\C/C=C\CCC(=O)OC[C@@H](COC(=O)CCCCCCC/C=C\CCCCCCCC)OC(=O)CCCCCCC/C=C\C/C=C\CCCCC [TG 18:1_18:2_22:6] (ion (formula + adduct): [C61H100O6+NH4] 1+)
334.6 Å² | – | – | CC/C=C\C/C=C\C/C=C\C/C=C\C/C=C\C/C=C\CCC(=O)OC[C@@H](COC(=O)CCCCCCC/C=C\CCCCCCCC)OC(=O)CCCCCCC/C=C\CCCCCCCCC [TG 18:1_19:1_22:6] (ion (formula + adduct): [C62H104O6+NH4] 1+)
336.4 Å² | – | – | CCCCC/C=C\C/C=C\C/C=C\CCCCCCC(=O)OC[C@@H](COC(=O)CCCCCCC/C=C\CCCCCCCC)OC(=O)CCCCCCCCC/C=C\CCCCCCCC [TG 18:1_20:1_20:3] (ion (formula + adduct): [C61H108O6+NH4] 1+)
338.9 Å² | – | – | CCCCC/C=C\C/C=C\C/C=C\C/C=C\CCCCCC(=O)OC[C@@H](COC(=O)CCCCCCC/C=C\CCCCCCCC)OC(=O)CCCCCCCCC/C=C\CCCCCCCC [TG 18:1_20:1_22:4] (ion (formula + adduct): [C63H110O6+NH4] 1+)
– | – | 337.9 Å² | CC/C=C\C/C=C\C/C=C\C/C=C\C/C=C\CCCCCC(=O)OC[C@@H](COC(=O)CCCCCCC/C=C\CCCCCCCC)OC(=O)CCCCCCCCC/C=C\CCCCCCCC [TG 18:1_20:1_22:5] (ion (formula + adduct): [C63H108O6+NH4] 1+)
336.5 Å² | – | – | CC/C=C\C/C=C\C/C=C\C/C=C\C/C=C\C/C=C\CCC(=O)OC[C@@H](COC(=O)CCCCCCC/C=C\CCCCCCCC)OC(=O)CCCCCCCCC/C=C\CCCCCCCC [TG 18:1_20:1_22:6] (ion (formula + adduct): [C63H106O6+NH4] 1+)
– | – | 339.9 Å² | CCCCC/C=C\C/C=C\C/C=C\C/C=C\CCCC(=O)O[C@H](COC(=O)CCCCCCC/C=C\CCCCCCCC)COC(=O)CCCCCCCCCCC/C=C\CCCCCCCC [TG 18:1_20:4_22:1] (ion (formula + adduct): [C63H110O6+NH4] 1+)
333.4 Å² | – | – | CC/C=C\C/C=C\C/C=C\C/C=C\C/C=C\CCCCCC(=O)OC[C@@H](COC(=O)CCCCCCC/C=C\CCCCCCCC)OC(=O)CCC/C=C\C/C=C\C/C=C\C/C=C\CCCCC [TG 18:1_20:4_22:5] (ion (formula + adduct): [C63H102O6+NH4] 1+)
– | 332.5 Å² | – | CC/C=C\C/C=C\C/C=C\C/C=C\C/C=C\C/C=C\CCC(=O)OC[C@@H](COC(=O)CCCCCCC/C=C\CCCCCCCC)OC(=O)CCC/C=C\C/C=C\C/C=C\C/C=C\CCCCC [TG 18:1_20:4_22:6] (ion (formula + adduct): [C63H100O6+NH4] 1+)
– | – | 344.7 Å² | CC/C=C\C/C=C\C/C=C\C/C=C\C/C=C\C/C=C\CCC(=O)OC[C@@H](COC(=O)CCCCCCC/C=C\CCCCCCCC)OC(=O)CCCCCCCCCCCCCCCCCCCCC [TG 18:1_22:0_22:6] (ion (formula + adduct): [C65H112O6+NH4] 1+)

Second part, the compound before the results:

SMILES | TIMS collisional cross section (sample type: HeLa) | TIMS collisional cross section (sample type: plasma) | TIMS collisional cross section (sample type: Liver)
CCCCC/C=C\C/C=C\CCCCCCCC(=O)O[C@H](COC(=O)CCCCCCC/C=C\CCCCCCCC)COC(=O)CCCCCCCCCCCCCCCCCC [TG 18:1_18:2_19:0] (ion (formula + adduct): [C58H106O6+NH4] 1+) | – | – | 329.2 Å²
CCCCC/C=C\C/C=C\CCCCCCCC(=O)O[C@H](COC(=O)CCCCCCC/C=C\CCCCCCCC)COC(=O)CCCCCCCCCCCCCCCCCCC [TG 18:1_18:2_20:0] (ion (formula + adduct): [C59H108O6+NH4] 1+) | – | – | 332.3 Å²
CCCCC/C=C\C/C=C\CCCCCCCC(=O)O[C@H](COC(=O)CCCCCCC/C=C\CCCCCCCC)COC(=O)CCCCCCCCCCCCCCCCCCCC [TG 18:1_18:2_21:0] (ion (formula + adduct): [C60H110O6+NH4] 1+) | – | – | 334.4 Å²
CCCCC/C=C\C/C=C\CCCCCCCC(=O)O[C@H](COC(=O)CCCCCCC/C=C\CCCCCCCC)COC(=O)CCCCCCCCCCCCCCCCCCCCC [TG 18:1_18:2_22:0] (ion (formula + adduct): [C61H112O6+NH4] 1+) | – | 337.6 Å² | 338.2 Å²
CCCCC/C=C\C/C=C\CCCCCCCC(=O)O[C@H](COC(=O)CCCCCCC/C=C\CCCCCCCC)COC(=O)CCCCCCCCCCC/C=C\CCCCCCCC [TG 18:1_18:2_22:1] (ion (formula + adduct): [C61H110O6+NH4] 1+) | – | 335 Å² | 335.3 Å²
CCCCCCCC/C=C\CCCCCCCCCC(=O)OC[C@@H](COC(=O)CCCCCCC/C=C\CCCCCCCC)OC(=O)CCCCCCCCCCCCCCCCCC [TG 18:1_19:0_20:1] (ion (formula + adduct): [C60H112O6+NH4] 1+) | 336.7 Å² | – | 337 Å²
CCCCCCCC/C=C\CCCCCCCC(=O)OC[C@H](COC(=O)CCCCCCCCCCCCCCCCCCCCC)OC(=O)CCCCCCCCCCCCCCCCCC [TG 18:1_19:0_22:0] (ion (formula + adduct): [C62H118O6+NH4] 1+) | – | – | 344.9 Å²
CCCCCCCC/C=C\CCCCCCCC(=O)OC[C@H](COC(=O)CCCCCCCCCCCCCCCCCCCC)OC(=O)CCCCCCCCCCCCCCCCCCC [TG 18:1_20:0_21:0] (ion (formula + adduct): [C62H118O6+NH4] 1+) | 344.2 Å² | – | –
CCCCCCCC/C=C\CCCCCCCC(=O)OC[C@H](COC(=O)CCCCCCCCCCCCCCCCCCCCC)OC(=O)CCCCCCCCCCCCCCCCCCC [TG 18:1_20:0_22:0] (ion (formula + adduct): [C63H120O6+NH4] 1+) | 346.3 Å² | 347.4 Å² | –
CCCCCCCC/C=C\CCCCCCCCCC(=O)O[C@H](COC(=O)CCCCCCC/C=C\CCCCCCCC)COC(=O)CCCCCCCCCCCCCCCCCCCC [TG 18:1_20:1_21:0] (ion (formula + adduct): [C62H116O6+NH4] 1+) | – | – | 342.9 Å²
CCCCCCCC/C=C\CCCCCCCCCC(=O)O[C@H](COC(=O)CCCCCCC/C=C\CCCCCCCC)COC(=O)CCCCCCCCCCCCCCCCCCCCC [TG 18:1_20:1_22:0] (ion (formula + adduct): [C63H118O6+NH4] 1+) | 344.7 Å² | – | 345.8 Å²
CCCCCCCC/C=C\CCCCCCCCCCCC(=O)OC[C@@H](COC(=O)CCCCCCC/C=C\CCCCCCCC)OC(=O)CCCCCCCCC/C=C\CCCCCCCC [TG 18:1_20:1_22:1] (ion (formula + adduct): [C63H116O6+NH4] 1+) | – | 343 Å² | 342.9 Å²
CCCCCCCC/C=C\CCCCCCCCCCCC(=O)OC[C@@H](COC(=O)CCCCCCC/C=C\CCCCCCCC)OC(=O)CCCCCCCCCCC/C=C\CCCCCCCC [TG 18:1_22:1_22:1] (ion (formula + adduct): [C65H120O6+NH4] 1+) | 349.2 Å² | – | –
